Measured values taken from article PMC7411710, “Biocatalysis of D,L-Peptide Nanofibrillar Hydrogel” (Molecules, 2020).
Non-standard residues stand in square brackets, D forms with d. Residues, ends and D or L forms follow the SMILES beside them.

Legend:
[1] = pH 7.4; without Zn2+; cited from earlier work
Source text: Table 2 Comparison of catalytic performance with literature data on short peptides without Zn^2+. | column: kcat/KM (s^−1M^−1)

[2] = cited from earlier work
Source text: However, at present, it is still not possible to predict exactly the performance of a de novo designed peptide. Amongst the various approaches to achieve a self-assembling short peptide, an attractive strategy features the inclusion of both D- and L-amino acids at specific positions along a heterochiral sequence, whereby nanostructured hydrogels can be formed even with just three amino acids, while their homochiral isomers typically precipitate in water. These supramolecular systems feature amphipathic assemblies, whereby the different stereoconfiguration allows displaying hydrophobic s ...

oscillatory rheometry = assay type: physicochemical; conditions: 10 mM; 1 Hz; 25 °C
Method: His–Leu–^DLeu–Ile–His–Leu–^DLeu–Ile (Scheme 1) was synthesized in solid phase and purified by reverse-phase HPLC, following published procedures. Peptide identity and purity was confirmed by ^1H-NMR and electrospray ionization (ESI)-MS (see Supplementary Materials). […] A pH change to neutral was then used to trigger fibrillization, which, at higher concentrations, led to the formation of self-supportive hydrogels, with a minimum gelling concentration (mgc) of 10 mM. The viscoelastic properties of the hydrogel were assessed by oscillatory rheometry (see Supplementary Materials). At mgc, the peptide gelled immediately and reached a G′ of 1 kPa, which remained stable over time. Frequency sweeps confirmed G′ > G″, with both values being independent of applied frequency, as expected for a stable hydrogel. Stress sweeps confirmed a linear viscoelastic region until 1 Pa, with a gel-to-sol transition occurring above 10 Pa.
Dynamic time sweep rheological analysis was conducted on a Malvern Kinexus Ultra Plus Rheometer (Alfatest, Milan, Italy) with a 20-mm stainless-steel parallel plate geometry. […] Samples were prepared in situ and immediately analyzed with a gap of 1 mm. Time sweeps were recorded using a frequency of 1 Hz and a controlled stress of 0.50 Pa. Frequency sweeps were recorded using a controlled stress of 0.50 Pa, and then stress sweeps were recorded using a frequency of 1 Hz.

[3] = water solubility (observation); assay type: physicochemical; conditions: neutral pH

In the case of “HSGQQKFQFQFEQQ [self-assembling His peptide, literature catalyst]”, the kcat/KM [1] is given as 0.09 s^−1M^−1.
In the case of His–^DPhe–^DPhe, the “concentration of hydrogel formation” value [2] is listed as 50000 µM.
With `CC[C@H](C)[C@H](NC(=O)[C@@H](CC(C)C)NC(=O)[C@H](CC(C)C)NC(=O)[C@H](Cc1c[nH]cn1)NC(=O)[C@@H](NC(=O)[C@@H](CC(C)C)NC(=O)[C@H](CC(C)C)NC(=O)[C@@H](N)Cc1c[nH]cn1)[C@@H](C)CC)C(=O)O` [His–Leu–^DLeu–Ile–His–Leu–^DLeu–Ile] (H-HL[dL]IHL[dL]I-OH) the “gel-to-sol transition (stress sweep)” value (oscillatory rheometry) was “above 10 Pa” and the water solubility [3] was “limited water solubility”.
In the case of “H2KLLLAAA(Nε-palmytoyl)K-NH2 [peptide amphiphile reported by Guler and Stupp]”, the kcat/KM [1] is given as 20 s^−1M^−1.
